Earlier results in patent US8309490B2, “Low VOC and stable plant growth regulator liquid and granule compositions” (Valent BioSciences Corporation, priority 2009, dated 2012).

Conditions: at 25° C.

O=C(Nc1ccccc1)Nc1ccnc(Cl)c1 [CPPU, forchlorfenuron]
water solubility: 39 ppm
